Results reported in patent publication US11174245B2, “Benzimidazole compounds and derivatives as EGFR inhibitors” (Boehringer Ingelheim International GmbH, priority 2018, dated 2021).

Molecular target: EGFR del19 T790M C797S protein in Ba/F3 cells (Homo sapiens, UniProt P00533, C797S/DEL746-750/T790M)
Test: pEGFR assay (AlphaScreen Surefire, EGFR Tyr1068 phosphorylation)
Type: cell-based
Experimental: Transduced cells were selected using puromycin. Following selection, IL-3 was withdrawn and IL-3 independent cells cultured. p-EGFR Tyr1068 was determined using the AlphaScreen Surefire pEGF Receptor (Tyr1068) Assay (PerkinElmer, TGRERS). […] Subsequently, 60.000 cells/well in 60 μL were added. Cells were incubated with compound for 4 h at 37° C. […] The mixture was incubated at room temperature with shaking (700 rpm) for 20 min. After centrifugation, 4 μL of the lysate were transferred to Proxiplates. […] Plates were shaken for 1 min (1400 rpm) and incubated for 2 h at room temperature in the dark.
The results of the assay are provided as IC50 values (see table 12).

EGFR del19 T790M C797S protein in Ba/F3 cells, sequence (P00533 with tags, fused parts or gaps C797S/DEL746-750/T790M limits assumed): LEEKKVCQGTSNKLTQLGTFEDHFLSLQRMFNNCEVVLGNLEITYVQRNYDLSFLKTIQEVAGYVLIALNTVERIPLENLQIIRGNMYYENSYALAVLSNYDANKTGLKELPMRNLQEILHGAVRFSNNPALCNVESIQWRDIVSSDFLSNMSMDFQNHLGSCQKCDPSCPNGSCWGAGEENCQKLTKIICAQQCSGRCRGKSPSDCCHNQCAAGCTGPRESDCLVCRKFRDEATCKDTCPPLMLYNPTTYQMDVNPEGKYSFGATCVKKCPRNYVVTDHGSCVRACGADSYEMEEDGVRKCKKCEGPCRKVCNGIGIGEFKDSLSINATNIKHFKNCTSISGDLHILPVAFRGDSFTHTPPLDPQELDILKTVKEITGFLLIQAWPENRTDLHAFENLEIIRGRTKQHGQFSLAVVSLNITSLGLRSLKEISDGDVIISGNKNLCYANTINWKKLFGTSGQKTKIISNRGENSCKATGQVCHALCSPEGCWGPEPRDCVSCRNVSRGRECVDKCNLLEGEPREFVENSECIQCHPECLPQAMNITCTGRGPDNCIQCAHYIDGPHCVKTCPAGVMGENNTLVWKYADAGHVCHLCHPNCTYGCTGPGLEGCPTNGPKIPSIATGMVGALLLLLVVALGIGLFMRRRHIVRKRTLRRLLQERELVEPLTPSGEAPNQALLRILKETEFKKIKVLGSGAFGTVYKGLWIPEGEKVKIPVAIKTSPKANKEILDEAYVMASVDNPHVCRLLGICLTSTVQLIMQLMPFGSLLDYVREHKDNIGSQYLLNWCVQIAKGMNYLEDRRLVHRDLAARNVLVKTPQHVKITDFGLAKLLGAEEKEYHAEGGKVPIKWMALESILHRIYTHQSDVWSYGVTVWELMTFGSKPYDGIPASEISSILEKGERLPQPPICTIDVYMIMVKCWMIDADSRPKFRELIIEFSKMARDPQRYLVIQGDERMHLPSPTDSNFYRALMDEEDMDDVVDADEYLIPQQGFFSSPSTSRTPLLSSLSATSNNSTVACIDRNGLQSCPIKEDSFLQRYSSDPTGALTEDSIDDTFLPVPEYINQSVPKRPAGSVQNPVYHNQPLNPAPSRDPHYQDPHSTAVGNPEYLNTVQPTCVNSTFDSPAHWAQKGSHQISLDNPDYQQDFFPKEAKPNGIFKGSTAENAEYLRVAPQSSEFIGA

SMILES | IC50
CC(C)(O)Cn1/c(=N/C(=O)c2ccnc(-n3cnc4cccnc43)c2)[nH]c2ccccc21 [I-040] | 3 nM
CC(C)(O)Cn1/c(=N/C(=O)c2ccnc(-c3cnc4cccnn34)c2)[nH]c2ccccc21 [I-041] | 1 nM
COCCN1CCC(c2ccc3c(c2)[nH]/c(=N\C(=O)c2ccnc(-c4cccnc4)c2)n3CC(C)(C)O)CC1 [I-046] | 2 nM
COCCN1CCC(c2ccc3c(c2)[nH]/c(=N\C(=O)c2ccnc(-c4cnn(C)c4)c2)n3CC(C)(C)O)CC1 [I-047] | 3 nM
CC(C)(O)Cn1/c(=N/C(=O)c2ccnc(-c3ccsc3)c2)[nH]c2ccccc21 [I-050] | 24 nM
CC(C)(O)Cn1/c(=N/C(=O)c2ccnc(-c3cccs3)c2)[nH]c2ccccc21 [I-051] | 27 nM
Cn1cc(-c2cc(C(=O)/N=c3\[nH]c4cc(CN5CCCCC5)ccc4n3CC(C)(C)O)ccn2)cn1 [I-057] | 27 nM
Cn1cc(-c2cc(C(=O)/N=c3\[nH]c4cc(CN5CCOCC5)ccc4n3CC(C)(C)O)ccn2)cn1 [I-058] | 93 nM
COc1ccccc1-c1cc(C(=O)/N=c2\[nH]c3cc(CN4CCCCC4)ccc3n2CC(C)(C)O)ccn1 [I-059] | 3 nM
CCc1ccc2c(c1)[nH]/c(=N\C(=O)c1ccnc(-c3cnn(C)c3)c1)n2CC(C)(C)O [I-061] | 7 nM
CC(C)c1ccc2c(c1)[nH]/c(=N\C(=O)c1ccnc(-c3cnn(C)c3)c1)n2CC(C)(C)O [I-062] | 9 nM
Cn1cc(-c2cc(C(=O)/N=c3\[nH]c4cc(C(C)(C)O)ccc4n3CC(C)(C)O)ccn2)cn1 [I-063] | 74 nM
COCCN(C)c1ccc2c(c1)[nH]/c(=N\C(=O)c1ccnc(-c3cccnc3)c1)n2CC(C)(C)O [I-065] | 30 nM
CC(C)(O)Cn1/c(=N/C(=O)c2ccnc(-c3cccnc3)c2)[nH]c2cc(Cl)ccc21 [I-066] | 23 nM
CC(C)(O)Cn1/c(=N/C(=O)c2ccnc(-c3cccnc3)c2)[nH]c2cc(CO)ccc21 [I-067] | 16 nM
Cn1cc(-c2cc(C(=O)/N=c3\[nH]c4cc(NCC5CCOCC5)ccc4n3CC(C)(C)O)ccn2)cn1 [I-68] | 14 nM
Cc1cc2c(cc1N1CCN(C(C)C)CC1)[nH]/c(=N\C(=O)c1ccnc(-c3cnn(C)c3)c1)n2CC(C)(C)O [I-69] | 26 nM
Cc1cc2c(cc1N1CCCCC1)[nH]/c(=N\C(=O)c1ccnc(-c3cnn(C)c3)c1)n2CC(C)(C)O [I-70] | 94 nM
COCCCNc1cc2[nH]/c(=N\C(=O)c3ccnc(-c4cnn(C)c4)c3)n(CC(C)(C)O)c2cc1C [I-71] | 86 nM
C[C@@H]1CN(c2ccc3c(c2)[nH]/c(=N\C(=O)c2ccnc(-c4cnn(C)c4)c2)n3CC(C)(C)O)C[C@H](C)N1C [I-73] | 81 nM
Cn1cc(-c2cc(C(=O)/N=c3\[nH]c4cc(N5CCC6(CCOCC6)CC5)ccc4n3CC(C)(C)O)ccn2)cn1 [I-74] | 71 nM
Cn1cc(-c2cc(C(=O)/N=c3\[nH]c4cc(N5CCOC(C)(C)C5)ccc4n3CC(C)(C)O)ccn2)cn1 [I-75] | 54 nM
CC(C)(O)Cn1/c(=N/C(=O)c2ccnc(-c3cccnc3)c2)[nH]c2cc(N3CCCCC3)ccc21 [I-77] | 76 nM
CN(C)c1ccc2c(c1)[nH]/c(=N\C(=O)c1ccnc(-c3cccnc3)c1)n2CC(C)(C)O [I-79] | 42 nM
CN(C)C1CCN(c2ccc3c(c2)[nH]/c(=N\C(=O)c2ccnc(-c4cnn(C)c4)c2)n3CC(C)(C)O)C1 (stereo not drawn) [I-80] | 89 nM

SMILES | IC50
Cn1cc(-c2cc(C(=O)/N=c3\[nH]c4cc(NC[C@@H]5CCCO5)ccc4n3CC(C)(C)O)ccn2)cn1 [I-81] | 9 nM
CN(C)CCNc1ccc2c(c1)[nH]/c(=N\C(=O)c1ccnc(-c3cnn(C)c3)c1)n2CC(C)(C)O [I-82] | 14 nM
Cn1cc(-c2cc(C(=O)/N=c3\[nH]c4cc(NCCN5CCCC5)ccc4n3CC(C)(C)O)ccn2)cn1 [I-83] | 14 nM
CCc1ccc2[nH]/c(=N\C(=O)c3ccnc(-c4cccnc4)c3)n(CC(C)(C)O)c2c1 [I-84] | 21 nM
Cn1cc(-c2cc(C(=O)/N=c3\[nH]c4cc(C5CCOCC5)ccc4n3CC(C)(C)O)ccn2)cn1 [I-85] | 3 nM
Cn1cc(-c2cc(C(=O)/N=c3\[nH]c4cc(C5CCOC5)ccc4n3CC(C)(C)O)ccn2)cn1 (stereo not drawn) [I-86] | 5 nM
CN(C)CCOCCNc1ccc2c(c1)[nH]/c(=N\C(=O)c1ccnc(-c3cnn(C)c3)c1)n2CC(C)(C)O [I-87] | 81 nM
CC(C)(O)Cn1/c(=N/C(=O)c2ccnc(-c3cccc4ccnn34)c2)[nH]c2ccccc21 [I-90] | 12 nM
COc1ncccc1-c1cc(C(=O)/N=c2\[nH]c3ccccc3n2CC(C)(C)O)ccn1 [I-92] | 20 nM
CN(C)c1cccc(-c2cc(C(=O)/N=c3\[nH]c4ccccc4n3CC(C)(C)O)ccn2)c1 [I-94] | 99 nM
Cn1cnc2c(-c3cc(C(=O)/N=c4\[nH]c5ccccc5n4CC(C)(C)O)ccn3)cccc21 [I-95] | 74 nM
CC(C)(O)Cn1/c(=N/C(=O)c2ccnc(-c3cccc4ccoc34)c2)[nH]c2ccccc21 [I-98] | 6 nM
COc1cccc(-c2cc(C(=O)/N=c3\[nH]c4ccccc4n3CC(C)(C)O)ccn2)c1 [I-99] | 42 nM
CNC(=O)c1cccc(-c2cc(C(=O)/N=c3\[nH]c4ccccc4n3CC(C)(C)O)ccn2)c1 [I-100] | 76 nM
CN(C)C(=O)c1cccc(-c2cc(C(=O)/N=c3\[nH]c4ccccc4n3CC(C)(C)O)ccn2)c1 [I-103] | 43 nM
CC(C)(O)Cn1/c(=N/C(=O)c2ccnc(-c3cccc(O)c3)c2)[nH]c2ccccc21 [I-104] | 12 nM
CC(C)(O)Cn1/c(=N/C(=O)c2ccnc(-c3ccccn3)c2)[nH]c2ccccc21 [I-106] | 97 nM
COc1ccccc1-c1cc(C(=O)/N=c2\[nH]c3cc(C4CCNCC4)ccc3n2[C@H]2CC[C@@H](O)CC2)ccn1 [I-120] | 3 nM
COc1ccccc1-c1cc(C(=O)/N=c2\[nH]c3cc(C4CCN(C(C)=O)CC4)ccc3n2[C@H]2CC[C@@H](O)CC2)ccn1 [I-121] | 2 nM
COc1ccccc1-c1cc(C(=O)/N=c2\[nH]c3cc(C4CCN(C)CC4)ccc3n2[C@H]2CC[C@@H](O)CC2)ccn1 [I-124] | 2 nM
O=C(/N=c1\[nH]c2ccccc2n1[C@H]1CC[C@@H](O)CC1)c1ccnc(-n2ccc3ccccc32)c1 [I-125] | 11 nM
CNC(=O)Cc1ccc2c(c1)[nH]/c(=N\C(=O)c1ccnc(-c3cccnc3)c1)n2CC(C)(C)O [I-131] | 92 nM
COc1ccccc1-c1cc(C(=O)/N=c2\[nH]c3cc(CN4CC(OC)C4)ccc3n2[C@H]2CC[C@@H](O)CC2)ccn1 [I-140] | 2 nM
COc1ccccc1-c1cc(C(=O)/N=c2\[nH]c3cc(CN4CCOCC4)ccc3n2[C@H]2CC[C@@H](O)CC2)ccn1 [I-142] | 3 nM
COc1ccccc1-c1cc(C(=O)/N=c2\[nH]c3cc(CN4CC[C@H](OC)C4)ccc3n2[C@H]2CC[C@@H](O)CC2)ccn1 [I-151] | 4 nM

Second part, the compound after the results:

IC50 | SMILES
58 nM | Cc1ccncc1-c1cc(C(=O)/N=c2\[nH]c3ccccc3n2CC(C)(C)O)ccn1 [I-016]
55 nM | CC(C)(O)Cn1/c(=N/C(=O)c2ccnc(-c3cnccc3Cl)c2)[nH]c2ccccc21 [I-027]
6 nM | Cn1cc(-c2cc(C(=O)/N=c3\[nH]c4ccccc4n3C3CCCOC3)ccn2)cn1 (stereo not drawn) [I-043]
2 nM | Cc1c(-c2cc(C(=O)/N=c3\[nH]c4ccccc4n3C3CCCCC3)ccn2)cnn1C [I-044]
2 nM | COCCN1CCC(c2ccc3c(c2)[nH]/c(=N\C(=O)c2ccnc(-c4cnn(C)c4C)c2)n3CC(C)(C)O)CC1 [I-045]
7 nM | Cn1cc(-c2cc(C(=O)/N=c3\[nH]c4ccccc4n3C3CCOCC3)ccn2)cn1 [I-049]
11 nM | Cn1ncc2c(-c3cc(C(=O)/N=c4\[nH]c5ccccc5n4CC(C)(C)O)ccn3)cccc21 [I-88]
8 nM | O=C(/N=c1\[nH]c2ccccc2n1[C@H]1CC[C@@H](O)CC1)c1ccnc(-c2cccc3ccnn23)c1 [I-89]
39 nM | O=C(/N=c1\[nH]c2ccccc2n1[C@H]1CC[C@@H](O)CC1)c1ccnc(-c2csc3ccccc23)c1 [I-96]
14 nM | COc1ccccc1-c1cc(C(=O)/N=c2\[nH]c3ccccc3n2[C@H]2CCCC[C@@H]2O)ccn1 [I-97]
12 nM | CN(C)Cc1cccc(-c2cc(C(=O)/N=c3\[nH]c4ccccc4n3C3CCCCC3)ccn2)c1 [I-117]
3 nM | COc1ccccc1-c1cc(C(=O)/N=c2\[nH]c3ccccc3n2[C@H]2CCC[C@H](O)C2)ccn1 [I-119]
2 nM | COc1ccccc1-c1cc(C(=O)/N=c2\[nH]c3ccccc3n2[C@@H]2CCCOC2)ccn1 [I-122]
2 nM | COc1ccccc1-c1cc(C(=O)/N=c2\[nH]c3ccccc3n2[C@H]2CCCOC2)ccn1 [I-123]
2 nM | COc1ccccc1-c1cc(C(=O)/N=c2\[nH]c3ccccc3n2[C@H]2CCC[C@@H](O)C2)ccn1 [I-127]
5 nM | COc1ccccc1-c1cc(C(=O)/N=c2\[nH]c3ccccc3n2[C@@H]2CCC[C@H](O)C2)ccn1 [I-129]
7 nM | COc1ccccc1-c1cc(C(=O)/N=c2\[nH]c3ccccc3n2[C@@H]2CCCC[C@H]2O)ccn1 [I-132]
1 nM | Cn1cc(-c2cc(C(=O)/N=c3\[nH]c4ccccc4n3[C@H]3CC[C@@H](O)CC3)cc(F)n2)cn1 [I-133]
1 nM | Cc1ccc2c(c1)[nH]/c(=N\C(=O)c1ccnc(-c3cnn(C)c3)c1)n2[C@H]1CC[C@@H](O)CC1 [I-134]
2 nM | COc1ccccc1-c1cc(C(=O)/N=c2\[nH]c3ccccc3n2[C@@H]2CCC[C@@H](O)C2)ccn1 [I-139]
4 nM | COc1cnccc1-c1cc(C(=O)/N=c2\[nH]c3ccccc3n2[C@H]2CC[C@@H](O)CC2)ccn1 [I-147]
4 nM | O=C(/N=c1\[nH]c2ccccc2n1[C@H]1CC[C@@H](O)CC1)c1ccnc(-n2ccc3cccnc32)c1 [I-150]
